Measured values as given in patent publication US20250115569A1, “SULFONAMIDE COMPOUNDS FOR THE TREATMENT OF NEUROLOGICAL CONDITIONS” (LARIO THERAPEUTICS LIMITED, priority 2021, published 2025).

Test system: Human Cav2.3 channel
Assay: Human Cav2.3 channel calcium-influx assay
Format: cell-based
Conditions: Fluo8 fluorescence, HEK-293 T-Rex/Kir2.1/Cav2.3e cells, without pluronic acid
Procedure: HEK-293 T-Rex cells were transfected with pcDNA3.1-Kir2.1 to generate a stable cell line. After antibiotic selection, the obtained stable pools were analysed using FLIPR^TETRA (membrane potential assay), and a limiting dilution was performed and a HEK-293 T-Rex/Kir2.1 clone was selected. The clone was transfected with pcDNA3.1-Cav2.3e and pBud-Cav-β4-α2δ1 to generate a stable cell line where the Cav2.3e expression is inducible. After antibiotic selection, functional clone pool analysis and two successive limiting dilutions, the final clone underwent a qPCR analysis and a biophysical and pharmacological validation using patch-clamp.
A compound plate, containing 10 test compounds in eight-points dose response with n=4, was prepared. Test compounds dose response curves were prepared in automated fashion in 100% DMSO at CyBio Felix and starting from a stock solution in 100% DMSO; a defined volume was serially moved into destination wells pre-filled with the desired DMSO volume; stock solution concentration volumes were dependent on the final compounds concentrations to be tested and the final DMSO content used in the assay. For the assay test compounds dose response curves ranged from 30 μM and half log dilution with 0.3% final DMSO. In order to obtain the 8-points dose response curve all the concentrations were created by starting from a 10 mM DMSO stock solution and then moving 9.5 μL into a destination well pre-filled with 20.5 μL of 100% DMSO and repeating this step seven times. This initial step was done into 96 MTP plates, 10 compounds/plate. One 384 MTP was then reformatted to contain all the 10 compounds at 8 concentrations, quadruplicate data points. This so obtained 384 MTP compound plate served as source plate in a “mother to child” process with a CyBi®-Well dispenser in which 0.7 μL of compounds were moved into a destination plate pre-filled with 57.6 μL of Tyrode's buffer 0 mM K+, thus obtaining 4× concentrated compounds solution. In columns 1-2 and 23-24 the control wells were added. Both “source” compound plate and “destination” compound plate were barcoded and a relationship between the two plates was thus generated.
The day before the experiment, cells were detached by gentle wash with DPBS, followed by 5 min incubation at 37° C. with Trypsin solution. Detached cells were diluted with OptiMEM+Doxycycline at 0.2 μg/mL, counted and plated in Poly-D-Lysine coated black/clear bottom (15.000 c/well in 20 μl/well) by the use of a MATRIX WellMate dispenser. Plates were placed into a humidified incubator at 37° C. with 5% CO2 until the experimental day. 24 h after seeding 10 μL/well of 1.5× Fluo8 NW dye solution prepared in Tyrode's buffer 0 mM K* were added on top of the seeding medium. Cell plates were incubated for 40-60 min at RT in the dark. We then Injected off-line 10 μL/well of test compounds and controls 4× concentrated in Tyrode's Buffer 0 mM K+ with the CyBi®-Well instrument. Cell plates were incubated 3 minutes at RT. Finally, we injected 20 μL/well of 3× concentrated activator solution (K20-Na130-Ca2 buffer: 20 mM KCl, 130 mM NaCl, 2 mM CaCl2, 10 mM HEPES, 10 mM Glucose, final concentrations, prepared starting from “K0-Na150-Ca2” and “K150-Na0-Ca2” buffers) at FDSS7000EX instrument and read emitted fluorescence for 130 seconds.
Data analysis was performed with Genedata Screener® software and reported compounds activity as % effect in relation to the normalization standards. The Kinetic Response Value (KRV) is calculated as follows:
KRV=Maximal fluorescence recorded from second 5 to second 130 minus baseline fluorescence, computed as average from second 1 to second 2, of the kinetic trace. The KRV was normalized versus Neutral Controls and Inhibitor Controls in order to obtain the Activity[%] for each well. […] Therefore, the compound activity values were scaled (based on the two references) to a common range (two-point normalization). […]

SMILES | Cav2.3 (pIC50)
CCN(C(c1ccc(F)cc1)C(F)(F)F)S(=O)(=O)c1ccc(N2CCOCC2)s1 (stereo not shown) [Example 89, N-ethyl-5-morpholino-N-(2,2,2-trifluoro-1-(4-fluorophenyl)ethyl)thiophene-2-sulfonamide] | 5.68
CCN(C(c1ccccc1OC)C(F)(F)F)S(=O)(=O)c1cncc(C#N)c1 (stereo not shown) [Example 107, 5-Cyano-N-ethyl-N-(2,2,2-trifluoro-1-(2-methoxyphenyl)ethyl)pyridine-3-sulfonamide] | 5.08
CCN(C(c1ccc(F)cc1F)C(F)(F)F)S(=O)(=O)c1cncc(C#N)c1 (stereo not shown) [Example 243, 5-cyano-N-(1-(2,4-difluorophenyl)-2,2,2-trifluoroethyl)-N-ethylpyridine-3-sulfonamide] | 5.19
CCN(C(c1ccc(OC)cc1)C(F)(F)F)S(=O)(=O)C1CCOCC1 (stereo not shown) [Example 124, N-ethyl-N-(2,2,2-trifluoro-1-(4-methoxyphenyl)ethyl)tetrahydro-2H-pyran-4-sulfonamide] | 6.11
CCN([C@@H](c1cccc(F)c1)C(F)(F)F)S(=O)(=O)c1cncc(C#N)c1 [Example 112, (S)-5-cyano-N-ethyl-N-(2,2,2-trifluoro-1-(3-fluorophenyl)ethyl)pyridine-3-sulfonamide] | 5.95
CCN([C@@H](c1ccc(F)c(Cl)c1)C(F)(F)F)S(=O)(=O)c1cncc(C#N)c1 [Example 253, (S)—N-(1-(3-chloro-4-fluorophenyl)-2,2,2-trifluoroethyl)-5-cyano-N-ethylpyridine-3-sulfonamide] | 5.56
CN([C@@H](c1ccc(F)cc1)C(F)(F)F)S(=O)(=O)c1ccc(C#N)s1 [Example 7, (S)-5-cyano-N-methyl-N-(2,2,2-trifluoro-1-(4-fluorophenyl)ethyl)thiophene-2-sulfonamide] | 5.44
CN([C@H](c1ccc(F)cc1)C(F)(F)F)S(=O)(=O)c1ccc2cnn(C)c2c1 [Example 161, (R)—N,1-dimethyl-N-(2,2,2-trifluoro-1-(4-fluorophenyl)ethyl)-1H-indazole-6-sulfonamide] | 6.22
CN(C(c1ccc(C(F)(F)F)c(F)c1)C(F)(F)F)S(=O)(=O)c1cncc(C#N)c1 (stereo not shown) [Example 255, 5-cyano-N-methyl-N-(2,2,2-trifluoro-1-(3-fluoro-4-(trifluoromethyl)phenyl)ethyl)pyridine-3-sulfonamide] | 6.96
CCN([C@H](c1ccc(F)cc1)C(F)(F)F)S(=O)(=O)c1ccc(C)s1 [Example 10, (R)—N-ethyl-5-methyl-N-(2,2,2-trifluoro-1-(4-fluorophenyl)ethyl)thiophene-2-sulfonamide] | 5.66
CCN(C(c1ccc(F)cc1F)C(F)(F)F)S(=O)(=O)c1cncc(C#N)c1 (stereo not shown) [Example 244, 5-cyano-N-(1-(2,4-difluorophenyl)-2,2,2-trifluoroethyl)-N-ethylpyridine-3-sulfonamide] | 5.84
CN([C@H](c1ccc(C(F)(F)F)cc1)C(F)(F)F)S(=O)(=O)c1ccn2ncnc2c1 [Example 215, (R)—N-methyl-N-(2,2,2-trifluoro-1-(4-(trifluoromethyl)phenyl)ethyl)-[1,2,4]triazolo[1,5-a]pyridine-7-sulfonamide] | 7.15
Cc1ncc(S(=O)(=O)N(C)C(c2ccc(F)cc2)C(F)(F)F)cn1 (stereo not shown) [Example 74, N,2-dimethyl-N-(2,2,2-trifluoro-1-(4-fluorophenyl)ethyl)pyrimidine-5-sulfonamide] | 5.83
CCN([C@H](c1ccc(F)cc1)C(F)(F)F)S(=O)(=O)c1ccc2nc(N)sc2c1 [Example 154, (R)-2-amino-N-ethyl-N-(2,2,2-trifluoro-1-(4-fluorophenyl)ethyl)benzo[d]thiazole-6-sulfonamide] | 6.70
CCN(C(c1ccc(F)cc1)C(F)(F)F)S(=O)(=O)c1ccc(C2=CCOCC2)s1 (stereo not shown) [Example 87, 5-(3,6-Dihydro-2H-pyran-4-yl)-N-ethyl-N-(2,2,2-trifluoro-1-(4-fluorophenyl)ethyl)thiophene-2-sulfonamide] | 5.50
CN([C@H](c1ccc(Cl)cc1)C(F)(F)F)S(=O)(=O)c1ccc2nncn2n1 [Example 205, (R)—N-(1-(4-chlorophenyl)-2,2,2-trifluoroethyl)-N-methyl-[1,2,4]triazolo[4,3-b]pyridazine-6-sulfonamide] | 5.89
CCN(C(c1ccc(F)cc1)C(F)(F)F)S(=O)(=O)c1csc(C#N)c1 (stereo not shown) [Example 42, 5-Cyano-N-ethyl-N-(2,2,2-trifluoro-1-(4-fluorophenyl)ethyl)thiophene-3-sulfonamide] | 6.90
CCN([C@@H](c1cccc(OC)c1)C(F)(F)F)S(=O)(=O)c1cncc(C#N)c1 [Example 73, (S)-5-Cyano-N-ethyl-N-(2,2,2-trifluoro-1-(3-methoxyphenyl)ethyl)pyridine-3-sulfonamide] | 5.50
Cc1ncc(S(=O)(=O)N(C)[C@@H](c2ccc(F)cc2)C(F)(F)F)cn1 [Example 79, (S)—N,2-dimethyl-N-(2,2,2-trifluoro-1-(4-fluorophenyl)ethyl)pyrimidine-5-sulfonamide] | 4.99
CN([C@H](c1ccc(C(F)(F)F)cc1)C(F)(F)F)S(=O)(=O)c1cncc(F)c1 [Example 224, (R)-5-fluoro-N-methyl-N-(2,2,2-trifluoro-1-(4-(trifluoromethyl)phenyl)ethyl)pyridine-3-sulfonamide] | 6.85
CCN(C(c1ccc(F)cc1)C(F)(F)F)S(=O)(=O)c1sc(C#N)cc1C (stereo not shown) [Example 45, 5-Cyano-N-ethyl-3-methyl-N-(2,2,2-trifluoro-1-(4-fluorophenyl)ethyl)thiophene-2-sulfonamide] | 6.07
CCN(C(c1ccccc1C)C(F)(F)F)S(=O)(=O)c1cncc(C#N)c1 (stereo not shown) [Example 86, 5-cyano-N-ethyl-N-(2,2,2-trifluoro-1-(o-tolyl)ethyl)pyridine-3-sulfonamide] | 5.95
CN([C@H](c1ccc(C(F)(F)F)cc1)C(F)(F)F)S(=O)(=O)c1cnc2ncccn12 [Example 214, (R)—N-methyl-N-(2,2,2-trifluoro-1-(4-(trifluoromethyl)phenyl)ethyl)imidazo[1,2-a]pyrimidine-3-sulfonamide] | 6.95
CCN(C(c1ccc(F)cc1)C(F)(F)F)S(=O)(=O)c1cnc(C)c(C#N)c1 (stereo not shown) [Example 55, 5-cyano-N-ethyl-6-methyl-N-(2,2,2-trifluoro-1-(4-fluorophenyl)ethyl)pyridine-3-sulfonamide] | 6.33
CCN([C@H](c1ccccc1C(F)(F)F)C(F)(F)F)S(=O)(=O)c1cncc(C#N)c1 [Example 248, (R)-5-cyano-N-ethyl-N-(2,2,2-trifluoro-1-(2-(trifluoromethyl)phenyl)ethyl)pyridine-3-sulfonamide] | 5.14
CCN(C(c1cccc(C)c1)C(F)(F)F)S(=O)(=O)c1cncc(C#N)c1 (stereo not shown) [Example 113, 5-Cyano-N-ethyl-N-(2,2,2-trifluoro-1-(m-tolyl)ethyl)pyridine-3-sulfonamide] | 6.96
CCN(C(c1cccc(OC)c1)C(F)(F)F)S(=O)(=O)c1cncc(C#N)c1 (stereo not shown) [Example 71, 5-Cyano-N-ethyl-N-(2,2,2-trifluoro-1-(3-methoxyphenyl)ethyl)pyridine-3-sulfonamide] | 6.80
CCN([C@@H](c1ccc(F)cc1)C(F)(F)F)S(=O)(=O)c1cncc(C#N)c1 [Example 34, (S)-5-cyano-N-ethyl-N-(2,2,2-trifluoro-1-(4-fluorophenyl)ethyl)pyridine-3-sulfonamide] | 6.20
